We go through 21 compounds from patent US20110117081A1, “FUNCTIONALIZED PYRROLIDINES AND USE THEREOF AS IAP INHIBITORS” (priority 2008, published 2011).

Structures are written as SMILES. Where only a bound is given, the exact number is not on record here.

For assay [1], the system named is Ovarian adenocarcinoma SKOV3 cells. The experiment in a line: SKOV3 cell viability assay (MTT). It counts as cell-based. To be noted: Homo sapiens, SK-OV-3, 72 hours. As for the experimental part: Ovarian adenocarcinoma SKOV3 cells (ATCC# HTB-77) were cultured as monolayers in McCoy's 5a medium (HyClone) supplemented with 2.2 g/L sodium bicarbonate (Gibco), 10% FBS (HyClone) and 1% penicillin/streptomycin (HyClone). Cells were seeded in tissue culture-treated 96 well plates at 5000 cells/well in 150 ul of media. After 24 hours, triplicate wells of cells were treated with various concentrations of compound (0.01 to 10000 nM) diluted in 50 ul of culture media. Cells were incubated at 37° C. (5% CO2) in the presence of compound for 72 hours. Metabolic viability of remaining cells was assessed by MTT (thiazolyl blue tetrazolium bromide, Sigma) assay. 20 ul of MTT reagent (10 mg/ml) was added per well and plates were incubated for 4 hours at 37° C. (5% CO2). The supernatant was then removed from the plate. The converted MTT product was solubilized with 100 uL of isopropanol and the absorbance was read at 570 nm using a Tecan spectrophotometer.
(§1) The percentage viability of compound-treated cells was expressed as a fraction of the absorbance/luminescence signal obtained from non-treated cells. EC50 values (corresponding to 50% cell survival in the presence of compound as compared to untreated controls) were calculated from MTT survival curves (HCT116 and SKOV3) using BioAssay software (CambridgeSoft) and from Cell Titer-Glo survival curves (synovioycte and Jurkat cells) using GraphPad Prism (Graph Pad Software Inc.). In the below chart, EC50 values are summarized as follows: a=EC50 of less than 10 nM; b=EC50 of 10-100 nM; and c=EC50 of greater than 100 nM.

The test system of assay [2] is Colorectal carcinoma HCT116 cells. Put plainly: HCT116 + ETR1 cell viability assay (MTT). The conditions noted are these: with ETR1 (40 ng/ml), 72 hrs. The assay is classed as cell-based. The method, then: Colorectal carcinoma HCT116 cells (ATCC# CCL-247) were cultured as monolayers in 96 well plates at a density of 2000 cells per well in 100 ul of McCoy's 5a medium (HyClone) supplemented with 2.2 g/L sodium bicarbonate (Gibco), 10% FBS (HyClone) and 1% penecillin/streptomycin (HyClone) for 24 hours. Triplicate wells of cells were treated for 72 hrs at 37° C. (5% CO2) with 50 ul of HGS agonistic Trail receptor antibody, ETR1 (40 ng/ml) in combination with 50 ul of diluted compound (0.01 to 10000 nM). Metabolic viability of remaining cells was assessed by MTT assay.
as §1

In general, EC50 refers to the concentration that produces a half-maximal response. As to `CN[C@@H](C)C(=O)N[C@H](C(=O)N1C[C@@H](NC(=O)c2ccc(-c3ccc(C(=O)N[C@H]4C[C@@H](C(=O)NC5c6ccccc6-c6ccccc65)N(C(=O)[C@@H](NC(=O)[C@H](C)NC)C5CCCCC5)C4)cc3)cc2)C[C@H]1C(=O)NC1c2ccccc2-c2ccccc21)C1CCCCC1` [Compound 12], the EC50 in assay [1] was 10 to 100 nM; in assay [2], < 10 nM.
For `CN[C@@H](C)C(=O)N[C@H](C(=O)N1C[C@@H](NC(=O)c2ccc(C(=O)N[C@H]3C[C@@H](C(=O)N[C@H](C)c4ccccc4)N(C(=O)[C@@H](NC(=O)[C@H](C)NC)C4CCCCC4)C3)cc2)C[C@H]1C(=O)N[C@H](C)c1ccccc1)C1CCCCC1` [Compound 13], in that order: < 10 nM and < 10 nM.
With `CN[C@@H](C)C(=O)N[C@H](C(=O)N1C[C@@H](NC(=O)c2ccc(C(=O)N[C@H]3C[C@@H](C(=O)N[C@H](Cc4ccccc4)c4ccccc4)N(C(=O)[C@@H](NC(=O)[C@H](C)NC)C4CCCCC4)C3)cc2)C[C@H]1C(=O)N[C@H](Cc1ccccc1)c1ccccc1)C1CCCCC1` [Compound 14], the values for the concentration giving a half-maximal response (EC50) in assay [1] and in assay [2] were 10 to 100 nM and < 10 nM, respectively.
For `CN[C@@H](C)C(=O)N[C@H](C(=O)N1C[C@@H](NC(=O)c2ccc(C(=O)N[C@H]3C[C@@H](C(=O)NC4c5ccccc5-c5ccccc54)N(C(=O)[C@@H](NC(=O)[C@H](C)NC)C4CCCCC4)C3)cc2)C[C@H]1C(=O)NC1c2ccccc2-c2ccccc21)C1CCCCC1` [Compound 15], in that order: < 10 nM and < 10 nM.
On the same counts, the results for `CN[C@@H](C)C(=O)N[C@H](C(=O)N1C[C@@H](NC(=O)c2ccc(C(=O)N[C@H]3C[C@@H](C(=O)N[C@H](CCc4ccccc4)c4ccccc4)N(C(=O)[C@@H](NC(=O)[C@H](C)NC)C4CCCCC4)C3)cc2)C[C@H]1C(=O)N[C@H](CCc1ccccc1)c1ccccc1)C1CCCCC1` [Compound 16] are 10 to 100 nM and 10 to 100 nM.
For `CN[C@@H](C)C(=O)N[C@H](C(=O)N1C[C@@H](NC(=O)C2CCC(C(=O)N[C@H]3C[C@@H](C(=O)N[C@H](COCc4ccccc4)c4ccccc4)N(C(=O)[C@@H](NC(=O)[C@H](C)NC)C4CCCCC4)C3)CC2)C[C@H]1C(=O)N[C@H](COCc1ccccc1)c1ccccc1)C1CCCCC1` (stereo partly drawn) [Compound 17], in that order: 10 to 100 nM and < 10 nM.
Turning to `CN[C@@H](C)C(=O)N[C@H](C(=O)N1C[C@@H](NC(=O)c2ccc(C(=O)N[C@H]3C[C@@H](C(=O)N[C@H](COCc4ccccc4)c4ccccc4)N(C(=O)[C@@H](NC(=O)[C@H](C)NC)C4CCCCC4)C3)cc2)C[C@H]1C(=O)N[C@H](COCc1ccccc1)c1ccccc1)C1CCCCC1` [Compound 18], the EC50 in assay [1] is 10 to 100 nM; in assay [2], < 10 nM.
On the same counts, the results for `CN[C@@H](C)C(=O)N[C@H](C(=O)N1C[C@@H](NC(=O)c2ccc3cc(C(=O)N[C@H]4C[C@@H](C(=O)N[C@@H]5CCCc6ccccc65)N(C(=O)[C@@H](NC(=O)[C@H](C)NC)C5CCCCC5)C4)ccc3c2)C[C@H]1C(=O)N[C@@H]1CCCc2ccccc21)C1CCCCC1` [Compound 19] are < 10 nM and < 10 nM.
On the same counts, the results for `CN[C@@H](C)C(=O)N[C@H](C(=O)N1C[C@@H](NC(=O)c2ccc3cc(C(=O)N[C@H]4C[C@@H](C(=O)NC5c6ccccc6-c6ccccc65)N(C(=O)[C@@H](NC(=O)[C@H](C)NC)C5CCCCC5)C4)ccc3c2)C[C@H]1C(=O)NC1c2ccccc2-c2ccccc21)C1CCCCC1` [Compound 20] are < 10 nM and < 10 nM.
On the same counts, the results for `CN[C@@H](C)C(=O)N[C@H](C(=O)N1C[C@@H](NC(=O)c2ccc3cc(C(=O)N[C@H]4C[C@@H](C(=O)N[C@H](COCc5ccccc5)c5ccccc5)N(C(=O)[C@@H](NC(=O)[C@H](C)NC)C5CCCCC5)C4)ccc3c2)C[C@H]1C(=O)N[C@H](COCc1ccccc1)c1ccccc1)C1CCCCC1` [Compound 21] are 10 to 100 nM and < 10 nM.
Take `CN[C@@H](C)C(=O)N[C@H](C(=O)N1C[C@@H](NC(=O)c2ccc3cc(C(=O)N[C@H]4C[C@@H](C(=O)N[C@@H]5CCc6ccccc65)N(C(=O)[C@@H](NC(=O)[C@H](C)NC)C5CCCCC5)C4)ccc3c2)C[C@H]1C(=O)N[C@@H]1CCc2ccccc21)C1CCCCC1` [Compound 22]: the EC50 in assay [1] and in assay [2] was < 10 nM each time.
`CN[C@@H](C)C(=O)N[C@H](C(=O)N1C[C@@H](NC(=O)c2ccc3cc(C(=O)N[C@H]4C[C@@H](C(=O)NC(c5ccccc5)c5ccccc5)N(C(=O)[C@@H](NC(=O)[C@H](C)NC)C5CCCCC5)C4)ccc3c2)C[C@H]1C(=O)NC(c1ccccc1)c1ccccc1)C1CCCCC1` [Compound 23]: the EC50 in assay [1] and in assay [2] was < 10 nM each time.
Turning to `CN[C@@H](C)C(=O)N[C@H](C(=O)N1C[C@@H](NC(=O)C2CCC(C(=O)N[C@H]3C[C@@H](C(=O)N[C@@H]4CCOc5ccc(F)cc54)N(C(=O)[C@@H](NC(=O)[C@H](C)NC)C4CCCCC4)C3)CC2)C[C@H]1C(=O)N[C@@H]1CCOc2ccc(F)cc21)C1CCCCC1` (stereo partly drawn) [Compound 24], the concentration for a half-maximal effect (EC50) in assay [1] is 10 to 100 nM; in assay [2], < 10 nM.
For the compound `CN[C@@H](C)C(=O)N[C@H](C(=O)N1C[C@@H](NC(=O)c2ccc(C(=O)N[C@H]3C[C@@H](C(=O)N[C@@H]4CCOc5ccc(F)cc54)N(C(=O)[C@@H](NC(=O)[C@H](C)NC)C4CCCCC4)C3)cc2)CC1C(=O)N[C@@H]1CCOc2ccc(F)cc21)C1CCCCC1` (stereo partly drawn) [Compound 25], the EC50 is 10 to 100 nM in assay [1] and < 10 nM in assay [2].
For `CN[C@@H](C)C(=O)N[C@H](C(=O)N1C[C@@H](NC(=O)c2ccc(C(=O)N[C@H]3C[C@@H](C(=O)N[C@H](C)c4ccc(F)cc4)N(C(=O)[C@@H](NC(=O)[C@H](C)NC)C4CCCCC4)C3)cc2)CC1C(=O)N[C@H](C)c1ccc(F)cc1)C1CCCCC1` (stereo partly drawn) [Compound 26], in that order: < 10 nM and < 10 nM.
On the same counts, the results for `CN[C@@H](C)C(=O)N[C@H](C(=O)N1C[C@@H](NC(=O)c2ccc(-c3ccc(C(=O)N[C@H]4C[C@@H](C(=O)N[C@H](COCc5ccccc5)c5ccccc5)N(C(=O)[C@@H](NC(=O)[C@H](C)NC)C5CCCCC5)C4)cc3)cc2)C[C@H]1C(=O)N[C@H](COCc1ccccc1)c1ccccc1)C1CCCCC1` [Compound 27] are 10 to 100 nM and < 10 nM.
As for `CN[C@@H](C)C(=O)N[C@H](C(=O)N1C[C@@H](NC(=O)c2ccc(C(=O)N[C@H]3C[C@@H](C(=O)N4CCCC[C@@H]4c4ccccc4)N(C(=O)[C@@H](NC(=O)[C@H](C)NC)C4CCCCC4)C3)cc2)CC1C(=O)N1CCCC[C@@H]1c1ccccc1)C1CCCCC1` (stereo partly drawn) [Compound 28], the EC50 in assay [1] and in assay [2] was 10 to 100 nM in each case.
With `CN[C@@H](C)C(=O)N[C@H](C(=O)N1C[C@@H](NC(=O)c2ccc(C(=O)N[C@H]3C[C@@H](C(=O)NCc4ccccc4)N(C(=O)[C@@H](NC(=O)[C@H](C)NC)C4CCCCC4)C3)cc2)C[C@H]1C(=O)NCc1ccccc1)C1CCCCC1` [Compound 29], the EC50 in assay [1] and in assay [2] was < 10 nM in each case.
With `CN[C@@H](C)C(=O)N[C@H](C(=O)N1C[C@@H](NC(=O)c2ccc(C(=O)N[C@H]3C[C@@H](C(=O)N4CCC[C@@H]4c4ccccc4)N(C(=O)[C@@H](NC(=O)[C@H](C)NC)C4CCCCC4)C3)cc2)C[C@H]1C(=O)N1CCC[C@@H]1c1ccccc1)C1CCCCC1` [Compound 30], the EC50 in assay [1] and in assay [2] was > 100 nM each time.
Consider `CN[C@@H](C)C(=O)N[C@H](C(=O)N1C[C@@H](NC(=O)c2ccc(C(=O)N[C@H]3C[C@@H](C(=O)N[C@@H]4CCOc5ccccc54)N(C(=O)[C@@H](NC(=O)[C@H](C)NC)C4CCCCC4)C3)cc2)C[C@H]1C(=O)N[C@@H]1CCOc2ccccc21)C1CCCCC1` [Compound 31], for which the EC50 in assay [1] and in assay [2] was < 10 nM throughout.
Take `CN[C@@H](C)C(=O)N[C@H](C(=O)N1C[C@@H](NC(=O)C2CCC(C(=O)N[C@H]3C[C@@H](C(=O)N[C@@H]4CCOc5ccccc54)N(C(=O)[C@@H](NC(=O)[C@H](C)NC)C4CCCCC4)C3)CC2)C[C@H]1C(=O)N[C@@H]1CCOc2ccccc21)C1CCCCC1` (stereo partly drawn) [Compound 32]: the concentration giving a half-maximal response (EC50) in assay [1] and in assay [2] was < 10 nM throughout.
